Assay results published in ChEMBL document CHEMBL1165927, “Insulinomimetic activity of two new gallotannins from the fruits of Capparis moonii” (2010).
Activity calls are given as the source filed them. The calls are words filed in the database; no cut-off is given here.

Columns and labels:
[1] = target: Insulin receptor (Rattus norvegicus) (UniProt P15127); experiment: […] in rat L6 cells after 24 hrs by immunoprecipitation; type: cell-based
L6 [2] = experiment: Increase in PI3K mRNA expression in rat L6 cells at 100 ng/ml by RT-PCR; type: functional, cell-based
L6 [3] = experiment: Increase in GLUT4 mRNA expression in rat L6 cells at 50 uM by RT-PCR; type: functional, cell-based
L6 [4] = experiment: Inhibition of glucose uptake in rat L6 myocyte at 10 ng/ml after 24 hrs; type: functional, cell-based
[5] = target: T1, Insulin receptor substrate 1 (Rattus norvegicus) (UniProt P35570); experiment: […] in rat L6 cells after 24 hrs by immunoprecipitation; type: cell-based
T1 sequence (whole entry): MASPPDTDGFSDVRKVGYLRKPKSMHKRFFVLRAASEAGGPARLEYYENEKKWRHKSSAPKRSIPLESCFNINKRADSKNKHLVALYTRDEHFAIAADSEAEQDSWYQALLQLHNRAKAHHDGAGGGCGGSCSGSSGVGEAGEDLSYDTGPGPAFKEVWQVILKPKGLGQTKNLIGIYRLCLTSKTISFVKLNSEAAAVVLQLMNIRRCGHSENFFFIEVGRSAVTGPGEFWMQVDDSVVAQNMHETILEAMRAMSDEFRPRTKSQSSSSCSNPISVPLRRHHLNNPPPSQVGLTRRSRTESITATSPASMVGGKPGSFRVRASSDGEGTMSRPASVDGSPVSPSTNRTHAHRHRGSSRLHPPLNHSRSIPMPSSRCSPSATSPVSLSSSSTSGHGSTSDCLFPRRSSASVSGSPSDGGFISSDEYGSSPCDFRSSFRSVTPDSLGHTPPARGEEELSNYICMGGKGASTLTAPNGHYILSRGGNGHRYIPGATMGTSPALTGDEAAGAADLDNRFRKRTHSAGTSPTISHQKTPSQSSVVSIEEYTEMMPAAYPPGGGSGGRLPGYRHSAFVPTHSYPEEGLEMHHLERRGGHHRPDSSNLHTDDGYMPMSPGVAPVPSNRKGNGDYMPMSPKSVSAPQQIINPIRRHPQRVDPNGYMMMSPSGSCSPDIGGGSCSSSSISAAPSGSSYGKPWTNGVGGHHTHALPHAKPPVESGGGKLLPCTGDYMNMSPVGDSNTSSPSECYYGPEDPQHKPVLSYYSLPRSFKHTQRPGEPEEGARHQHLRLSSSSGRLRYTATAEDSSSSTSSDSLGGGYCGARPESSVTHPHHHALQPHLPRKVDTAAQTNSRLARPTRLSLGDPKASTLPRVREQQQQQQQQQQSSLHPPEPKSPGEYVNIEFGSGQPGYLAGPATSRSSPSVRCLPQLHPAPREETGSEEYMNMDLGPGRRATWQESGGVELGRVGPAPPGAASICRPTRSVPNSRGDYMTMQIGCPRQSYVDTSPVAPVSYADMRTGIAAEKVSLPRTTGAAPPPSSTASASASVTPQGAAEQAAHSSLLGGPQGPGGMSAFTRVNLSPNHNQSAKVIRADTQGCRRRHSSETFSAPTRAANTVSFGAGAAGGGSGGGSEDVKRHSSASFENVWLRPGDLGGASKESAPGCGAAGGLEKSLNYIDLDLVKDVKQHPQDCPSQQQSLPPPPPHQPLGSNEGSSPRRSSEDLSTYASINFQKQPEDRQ

L6 [6] = experiment: Increase in PI3K mRNA expression in rat L6 cells at 10 ng/ml by RT-PCR; type: functional, cell-based
L6 [7] = experiment: Inhibition of glucose uptake in rat L6 myocyte at 50 uM after 24 hrs; type: functional; settings: L6, 24 h, values are per cent of control

Chain of Insulin receptor (Rattus norvegicus) (P15127 27-759 limits assumed): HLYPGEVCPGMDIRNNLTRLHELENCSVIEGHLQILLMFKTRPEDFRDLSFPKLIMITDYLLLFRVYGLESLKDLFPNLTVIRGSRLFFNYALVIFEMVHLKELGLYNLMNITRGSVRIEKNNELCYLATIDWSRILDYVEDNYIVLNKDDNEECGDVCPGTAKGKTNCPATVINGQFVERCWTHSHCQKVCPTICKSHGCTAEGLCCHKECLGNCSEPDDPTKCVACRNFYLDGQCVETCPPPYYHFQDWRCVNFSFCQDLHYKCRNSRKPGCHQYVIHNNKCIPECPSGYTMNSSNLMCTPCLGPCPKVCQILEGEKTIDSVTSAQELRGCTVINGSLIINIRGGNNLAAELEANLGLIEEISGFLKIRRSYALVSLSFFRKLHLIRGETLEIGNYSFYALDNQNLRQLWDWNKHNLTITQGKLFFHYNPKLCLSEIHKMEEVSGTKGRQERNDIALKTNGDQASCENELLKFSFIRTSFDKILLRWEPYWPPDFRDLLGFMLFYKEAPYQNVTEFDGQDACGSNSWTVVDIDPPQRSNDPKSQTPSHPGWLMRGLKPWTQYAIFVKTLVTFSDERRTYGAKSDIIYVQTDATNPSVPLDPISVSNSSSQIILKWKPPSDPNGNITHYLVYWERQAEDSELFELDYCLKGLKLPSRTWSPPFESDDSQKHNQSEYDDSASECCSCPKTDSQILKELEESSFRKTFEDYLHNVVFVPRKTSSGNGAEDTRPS
Chain of Insulin receptor (Rattus norvegicus) (P15127 764-1383 limits assumed): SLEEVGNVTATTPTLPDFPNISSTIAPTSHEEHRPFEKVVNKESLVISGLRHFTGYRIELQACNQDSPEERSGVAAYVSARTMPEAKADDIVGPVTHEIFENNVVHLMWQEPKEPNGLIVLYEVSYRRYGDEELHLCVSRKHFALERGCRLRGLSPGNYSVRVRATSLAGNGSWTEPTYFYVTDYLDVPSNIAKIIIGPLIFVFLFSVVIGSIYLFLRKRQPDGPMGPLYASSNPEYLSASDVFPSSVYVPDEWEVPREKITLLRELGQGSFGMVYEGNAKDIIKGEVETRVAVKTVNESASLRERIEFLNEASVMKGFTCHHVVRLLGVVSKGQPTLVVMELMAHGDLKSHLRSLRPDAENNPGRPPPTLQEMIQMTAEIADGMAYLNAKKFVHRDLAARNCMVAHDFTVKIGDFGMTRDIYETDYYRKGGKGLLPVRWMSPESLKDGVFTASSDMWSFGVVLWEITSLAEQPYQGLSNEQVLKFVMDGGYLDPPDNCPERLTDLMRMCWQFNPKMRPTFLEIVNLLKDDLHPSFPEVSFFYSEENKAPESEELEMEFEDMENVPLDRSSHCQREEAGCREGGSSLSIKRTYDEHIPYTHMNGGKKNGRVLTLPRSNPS

inhibition [1]	inhibition [5]	SMILES	Activity (L6 [2])	Activity (L6 [3])	inhibition (L6 [4])	Activity (L6 [6])	residual activity at 50 µM (L6 [7])
Active	Active	COC(=O)CC(C(=O)O)C1c2c(C(=O)O[C@H]3[C@H](OC(=O)c4cc(O)c(O)c(O)c4)O[C@H](COC(=O)c4cc(O)c(O)c(O)c4)[C@@H](O)[C@H]3OC(=O)c3cc(O)c(O)c(O)c3)cc(O)c(O)c2OC(=O)C1O (stereo partly specified)	Active	Active	Dose-dependent effect	–	–
Active	Active	O=C(O)CC(C(=O)O)C1c2c(C(=O)O[C@H]3[C@H](OC(=O)c4cc(O)c(O)c(O)c4)O[C@H](COC(=O)c4cc(O)c(O)c(O)c4)[C@@H](O)[C@H]3OC(=O)c3cc(O)c(O)c(O)c3)cc(O)c(O)c2OC(=O)C1O (stereo partly specified)	–	Active	Dose-dependent effect	Active	–
–	–	CN(CCOc1ccc(CC2SC(=O)NC2=O)cc1)c1ccccn1 (stereo unspecified) [ROSIGLITAZONE]	–	–	–	–	240%
